# Data reported in US20110313046A1, “COMBINATION THERAPY WITH LISDEXAMPHETAMINE AND EXTENDED RELEASE GUANFACINE” (priority 2010, published 2011).
# Read-outs that look alike come from different tables or passages of the source.
# Legend:
# [1] = Adverse events and safety, crossover drug-drug interaction study; format: in vivo, healthy adults; conditions: TEAEs by treatment; single oral dose (SPD503 4 mg, VYVANSE 50 mg)
# Procedure: A “treatment-emergent adverse event” (TEAE) is an AE that occurred or worsened during the on-treatment period.
# A “non-treatment-emergent adverse event” is an AE that occurred during the pre-treatment period or the post-treatment period.
# (§1) An open-label, randomized, single-center, 3-period, crossover, drug-drug interaction study in 42 healthy adults (18-45 years old) was performed. Subjects received three single, oral dose treatments: 4 mg extended release guanfacine, 50 mg lisdexamphetmaine, and 4 mg extended release guanfacine in combination with 50 mg lisdexamphetmaine. Subjects underwent the three treatment periods with a 7-day washout between each treatment.
# [2] = d-Amphetamine plasma pharmacokinetics, crossover drug-drug interaction study; format: in vivo, healthy adults
# Procedure: as §1
# [3] = Lisdexamphetamine plasma pharmacokinetics, crossover drug-drug interaction study; format: in vivo, healthy adults; set-up: lisdexamphetamine plasma concentration, Mean / lisdexamphetamine plasma concentration, Median / lisdexamphetamine plasma concentration, Min / lisdexamphetamine plasma concentration, Max: unit not given here; conditions: for AUC / AUC(0-t) / Cmax / Tmax / Vd/F / CL/F: po, 50 mg
# Procedure: as §1
# [4] = tested on: CYP450 system; conditions: cited from earlier work
# [5] = young intact rhesus monkeys; cited from earlier work
# [6] = biological target: CYP3A4 (Homo sapiens, UniProt P08684); conditions: cited from earlier work
# Chain of CYP3A4 (P08684 whole entry, species assumed): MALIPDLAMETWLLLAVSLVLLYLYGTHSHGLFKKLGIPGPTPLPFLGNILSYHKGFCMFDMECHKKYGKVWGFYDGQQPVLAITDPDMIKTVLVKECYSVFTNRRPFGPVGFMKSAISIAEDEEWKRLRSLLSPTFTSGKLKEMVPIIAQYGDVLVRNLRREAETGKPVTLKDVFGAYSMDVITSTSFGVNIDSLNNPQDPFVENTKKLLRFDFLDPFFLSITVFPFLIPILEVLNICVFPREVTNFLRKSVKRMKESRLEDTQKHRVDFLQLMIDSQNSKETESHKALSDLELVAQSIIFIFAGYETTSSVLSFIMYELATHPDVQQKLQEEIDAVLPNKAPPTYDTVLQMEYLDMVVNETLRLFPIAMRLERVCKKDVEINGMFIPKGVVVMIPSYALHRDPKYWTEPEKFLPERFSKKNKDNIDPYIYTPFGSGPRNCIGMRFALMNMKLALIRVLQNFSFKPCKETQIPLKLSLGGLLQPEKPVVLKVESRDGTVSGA
# [7] = Guanfacine plasma pharmacokinetics, crossover drug-drug interaction study; set-up: species or system healthy adults; conditions: human, in vivo
# Procedure: as §1
# [8] = single oral dose 50 mg, weight normalized
# [9] = time 0.5, single oral dose 50 mg
# [10] = time 1.5, single oral dose 50 mg
# [11] = time 12, single oral dose 50 mg
# [12] = time 24, single oral dose 50 mg
# [13] = time 30, single oral dose 50 mg
# [14] = time 48, single oral dose 50 mg
# [15] = time 72, single oral dose 50 mg
compound,measurement,setting,value
"C[C@@H](Cc1ccccc1)NC(=O)[C@@H](N)CCCCN [VYVANSE Alone, lisdexamphetamine dimesylate]",TEAE: Any Event,[1],8 (19.5) n (%)
same,TEAE: Arrhythmia supraventricular,[1],1 (2.4) n (%)
same,TEAE: Cardiac disorders,[1],3 (7.3) n (%)
same,TEAE: Diarrhoea,[1],0 (0.0) n (%)
same,TEAE: Dizziness,[1],3 (7.3) n (%)
same,TEAE: Dizziness postural,[1],1 (2.4) n (%)
same,TEAE: Dry mouth,[1],1 (2.4) n (%)
same,TEAE: Dysmenorrhoea,[1],1 (2.4) n (%)
same,TEAE: Flushing,[1],0 (0.0) n (%)
same,TEAE: Gastrointestinal disorders,[1],2 (4.9) n (%)
same,TEAE: General disorders and administration site conditions,[1],0 (0.0) n (%)
same,TEAE: Headache,[1],2 (4.9) n (%)
same,TEAE: Nausea,[1],1 (2.4) n (%)
same,TEAE: Nervous system disorders,[1],4 (9.8) n (%)
same,TEAE: Nervousness,[1],2 (4.9) n (%)
same,TEAE: Non-cardiac chest pain,[1],0 (0.0) n (%)
same,TEAE: Orthostatic hypotension,[1],0 (0.0) n (%)
same,TEAE: Palpitations,[1],1 (2.4) n (%)
same,TEAE: Paraesthesia,[1],0 (0.0) n (%)
same,TEAE: Psychiatric disorders,[1],2 (4.9) n (%)
same,TEAE: Psychomotor hyperactivity,[1],1 (2.4) n (%)
same,TEAE: Reproductive system and breast disorders,[1],1 (2.4) n (%)
same,TEAE: Supraventricular extrasystoles,[1],0 (0.0) n (%)
same,TEAE: Tachycardia,[1],1 (2.4) n (%)
same,TEAE: Vascular disorders,[1],0 (0.0) n (%)
same,TEAE: Wandering pacemaker,[1],1 (2.4) n (%)
same,"mean d-amphetamine plasma concentrations, alone compared with co-administration",[2]; FIG. 2,essentially identical
same,"weight normalized CL/F, alone compared with combination",[2]; between the two treatments,essentially the same
same,"mean lisdexamphetamine plasma concentrations, alone compared with co-administration",[3]; FIG. 3,essentially identical
same,AUC,"[3]; human, plasma, single oral dose 50 mg, read-out: lisdexamphetamine AUCinfo, Geo Mean",32.4 ng·h/mL
same,AUC,"[3]; human, plasma, single oral dose 50 mg, read-out: lisdexamphetamine AUCinfo, Mean",36.1 ng·h/mL
same,AUC,"[3]; human, plasma, single oral dose 50 mg, read-out: lisdexamphetamine AUCinfo, Median",33.2 ng·h/mL
same,AUC(0-t),"[3]; human, plasma, single oral dose 50 mg, read-out: lisdexamphetamine AUClast, Geo Mean",28.3 ng·h/mL
same,AUC(0-t),"[3]; human, plasma, single oral dose 50 mg, read-out: lisdexamphetamine AUClast, Mean",32.1 ng·h/mL
same,AUC(0-t),"[3]; human, plasma, single oral dose 50 mg, read-out: lisdexamphetamine AUClast, Median",27.2 ng·h/mL
same,Cmax,"[3]; human, plasma, single oral dose 50 mg, read-out: lisdexamphetamine Cmax, Geo Mean",22.5 ng/mL
same,Cmax,"[3]; human, plasma, single oral dose 50 mg, read-out: lisdexamphetamine Cmax, Mean",26.1 ng/mL
same,Cmax,"[3]; human, plasma, single oral dose 50 mg, read-out: lisdexamphetamine Cmax, Median",25.2 ng/mL
same,Tmax,"[3]; human, plasma, single oral dose 50 mg, read-out: lisdexamphetamine Tmax, Geo Mean",1.1 h
same,Tmax,"[3]; human, plasma, single oral dose 50 mg, read-out: lisdexamphetamine Tmax, Mean",1.1 h
same,Tmax,"[3]; human, plasma, single oral dose 50 mg, read-out: lisdexamphetamine Tmax, Median",1 h
same,Vd/F,"[3]; human, plasma, single oral dose 50 mg, read-out: lisdexamphetamine VZ/F, Geo Mean",1090 L
same,Vd/F,"[3]; human, plasma, single oral dose 50 mg, read-out: lisdexamphetamine VZ/F, Mean",1270 L
same,Vd/F,"[3]; human, plasma, single oral dose 50 mg, read-out: lisdexamphetamine VZ/F, Median",1040 L
same,CL/F,"[3]; human, plasma, single oral dose 50 mg, weight normalized, read-out: lisdexamphetamine CL/F, Geo Mean (converted)",339 mL/min/kg
same,CL/F,"[3]; human, plasma, single oral dose 50 mg, weight normalized, read-out: lisdexamphetamine CL/F, Mean (converted)",362 mL/min/kg
same,CL/F,"[3]; human, plasma, single oral dose 50 mg, weight normalized, read-out: lisdexamphetamine CL/F, Median (converted)",345 mL/min/kg
same,Vd/F,"[3]; human, plasma, single oral dose 50 mg, weight normalized, read-out: lisdexamphetamine VZ/F, Geo Mean",14.4 L/kg
same,Vd/F,"[3]; human, plasma, single oral dose 50 mg, weight normalized, read-out: lisdexamphetamine VZ/F, Mean",16 L/kg
same,Vd/F,"[3]; human, plasma, single oral dose 50 mg, weight normalized, read-out: lisdexamphetamine VZ/F, Median",13.7 L/kg
same,half-life,"[3]; human, plasma, single oral dose 50 mg, read-out: lisdexamphetamine T1/2, Mean (converted)",0.5 h
same,"lisdexamphetamine AUCinfo, Max",[3]; single oral dose 50 mg,95.6 ng·h/mL
same,"lisdexamphetamine AUCinfo, Min",[3]; single oral dose 50 mg,14.2 ng·h/mL
same,"lisdexamphetamine AUClast, Max",[3]; single oral dose 50 mg,94.3 ng·h/mL
same,"lisdexamphetamine AUClast, Min",[3]; single oral dose 50 mg,10.2 ng·h/mL
same,"lisdexamphetamine CL/F, Geo Mean",[3]; single oral dose 50 mg,1543 L/h
same,"lisdexamphetamine CL/F, Max",[3]; single oral dose 50 mg,3523.94 L/h
same,"lisdexamphetamine CL/F, Mean",[3]; single oral dose 50 mg,1701.28 L/h
same,"lisdexamphetamine CL/F, Median",[3]; single oral dose 50 mg,1504.94 L/h
same,"lisdexamphetamine CL/F, Min",[3]; single oral dose 50 mg,522.89 L/h
same,"lisdexamphetamine Cmax, Max",[3]; single oral dose 50 mg,82.37 ng/mL
same,"lisdexamphetamine Cmax, Min",[3]; single oral dose 50 mg,5.87 ng/mL
same,"lisdexamphetamine T1/2, Geo Mean",[3]; single oral dose 50 mg,0.5 h
same,"lisdexamphetamine T1/2, Max",[3]; single oral dose 50 mg,0.8 h
same,"lisdexamphetamine T1/2, Min",[3]; single oral dose 50 mg,0.3 h
same,"lisdexamphetamine Tmax, Max",[3]; single oral dose 50 mg,1.5 h
same,"lisdexamphetamine Tmax, Min",[3]; single oral dose 50 mg,1 h
same,"lisdexamphetamine CL/F, Max",[3]; [8],660.7 mL/min/kg
same,"lisdexamphetamine CL/F, Min",[3]; [8],115 mL/min/kg
same,"lisdexamphetamine plasma concentration, Max","[3]; time 0, single oral dose 50 mg",0
same,"lisdexamphetamine plasma concentration, Mean","[3]; time 0, single oral dose 50 mg",0
same,"lisdexamphetamine plasma concentration, Median","[3]; time 0, single oral dose 50 mg",0
same,"lisdexamphetamine plasma concentration, Min","[3]; time 0, single oral dose 50 mg",0
same,"lisdexamphetamine plasma concentration, Max",[3]; [9],54.99
same,"lisdexamphetamine plasma concentration, Mean",[3]; [9],8.5483
same,"lisdexamphetamine plasma concentration, Median",[3]; [9],4.51
same,"lisdexamphetamine plasma concentration, Min",[3]; [9],0
same,"lisdexamphetamine plasma concentration, Max","[3]; time 1, single oral dose 50 mg",82.37
same,"lisdexamphetamine plasma concentration, Mean","[3]; time 1, single oral dose 50 mg",24.921
same,"lisdexamphetamine plasma concentration, Median","[3]; time 1, single oral dose 50 mg",23.56
same,"lisdexamphetamine plasma concentration, Min","[3]; time 1, single oral dose 50 mg",4.5
same,"lisdexamphetamine plasma concentration, Max",[3]; [10],41.42
same,"lisdexamphetamine plasma concentration, Mean",[3]; [10],17.7205
same,"lisdexamphetamine plasma concentration, Median",[3]; [10],15.72
same,"lisdexamphetamine plasma concentration, Min",[3]; [10],5.87
same,"lisdexamphetamine plasma concentration, Max","[3]; time 2, single oral dose 50 mg",19.94
same,"lisdexamphetamine plasma concentration, Mean","[3]; time 2, single oral dose 50 mg",9.0166
same,"lisdexamphetamine plasma concentration, Median","[3]; time 2, single oral dose 50 mg",8.17
same,"lisdexamphetamine plasma concentration, Min","[3]; time 2, single oral dose 50 mg",2.42
same,"lisdexamphetamine plasma concentration, Max","[3]; time 3, single oral dose 50 mg",6.32
same,"lisdexamphetamine plasma concentration, Mean","[3]; time 3, single oral dose 50 mg",1.8902
same,"lisdexamphetamine plasma concentration, Median","[3]; time 3, single oral dose 50 mg",1.87
same,"lisdexamphetamine plasma concentration, Min","[3]; time 3, single oral dose 50 mg",0
same,"lisdexamphetamine plasma concentration, Max","[3]; time 4, single oral dose 50 mg",2.28
same,"lisdexamphetamine plasma concentration, Mean","[3]; time 4, single oral dose 50 mg",0.2849
same,"lisdexamphetamine plasma concentration, Median","[3]; time 4, single oral dose 50 mg",0
same,"lisdexamphetamine plasma concentration, Min","[3]; time 4, single oral dose 50 mg",0
same,"lisdexamphetamine plasma concentration, Max","[3]; time 6, single oral dose 50 mg",0
same,"lisdexamphetamine plasma concentration, Mean","[3]; time 6, single oral dose 50 mg",0
same,"lisdexamphetamine plasma concentration, Median","[3]; time 6, single oral dose 50 mg",0
same,"lisdexamphetamine plasma concentration, Min","[3]; time 6, single oral dose 50 mg",0
same,"lisdexamphetamine plasma concentration, Max","[3]; time 8, single oral dose 50 mg",0
same,"lisdexamphetamine plasma concentration, Mean","[3]; time 8, single oral dose 50 mg",0
same,"lisdexamphetamine plasma concentration, Median","[3]; time 8, single oral dose 50 mg",0
same,"lisdexamphetamine plasma concentration, Min","[3]; time 8, single oral dose 50 mg",0
same,"lisdexamphetamine plasma concentration, Max",[3]; [11],0
same,"lisdexamphetamine plasma concentration, Mean",[3]; [11],0
same,"lisdexamphetamine plasma concentration, Median",[3]; [11],0
same,"lisdexamphetamine plasma concentration, Min",[3]; [11],0
same,"lisdexamphetamine plasma concentration, Max",[3]; [12],0
same,"lisdexamphetamine plasma concentration, Mean",[3]; [12],0
same,"lisdexamphetamine plasma concentration, Median",[3]; [12],0
same,"lisdexamphetamine plasma concentration, Min",[3]; [12],0
same,"lisdexamphetamine plasma concentration, Max",[3]; [13],0
same,"lisdexamphetamine plasma concentration, Mean",[3]; [13],0
same,"lisdexamphetamine plasma concentration, Median",[3]; [13],0
same,"lisdexamphetamine plasma concentration, Min",[3]; [13],0
same,"lisdexamphetamine plasma concentration, Max",[3]; [14],0
same,"lisdexamphetamine plasma concentration, Mean",[3]; [14],0
same,"lisdexamphetamine plasma concentration, Median",[3]; [14],0
same,"lisdexamphetamine plasma concentration, Min",[3]; [14],0
same,"lisdexamphetamine plasma concentration, Max",[3]; [15],0
same,"lisdexamphetamine plasma concentration, Mean",[3]; [15],0
same,"lisdexamphetamine plasma concentration, Median",[3]; [15],0
same,"lisdexamphetamine plasma concentration, Min",[3]; [15],0
same,induction or inhibition of the CYP450 system,[4],neither an inducer nor inhibitor
same,metabolism by the CYP450 system,[4],not metabolized by the CYP450 system
Cl.N=C(N)NC(=O)Cc1c(Cl)cccc1Cl [guanfacine],delayed response performance,[5],can be improved
same,metabolism by CYP3A4,[6],known to be metabolized by CYP3A4
same,guanfacine Cmax in combination compared with alone,[7],higher than when administered alone
